What follows are compounds tested against T1, Human KLK1 (Homo sapiens, UniProt P06870) (assay: Determination of the IC50 for KLK1 (fluorogenic substrate H-DVal-Leu-Arg-AFC)). Settings: 37° C.
T1 construct: purchased Callbiochem (Calbiochem)
Format: biochemical
How it was run: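 Test compound at various concentrations was incubated with human KLK1 and the fluorogenic substrate H-DVal-Leu-Arg-AFC at 37° C. Absorbance change at 410 nm gave the initial reaction rate, from which IC50 was obtained.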

T1 sequence (P06870 25-262): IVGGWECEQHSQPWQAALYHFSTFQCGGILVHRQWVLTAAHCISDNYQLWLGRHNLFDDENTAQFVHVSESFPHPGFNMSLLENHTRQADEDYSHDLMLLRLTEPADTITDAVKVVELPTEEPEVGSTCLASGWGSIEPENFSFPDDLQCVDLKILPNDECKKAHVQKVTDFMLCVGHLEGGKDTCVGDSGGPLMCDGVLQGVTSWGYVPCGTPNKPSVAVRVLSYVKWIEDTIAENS

IC50 [nM]	SMILES
26.9	CC(C)N(CC(=O)N[C@@H](CC1CCCCC1)C(=O)NCc1ccc(N)nc1)C(C)C [Example 393, (S)—N-(6-Amino-pyridin-3-ylmethyl)-3-cyclohexyl-2-(2-diisopropylamino-acetylamino)-propionamide]
8.4	CC(C)N(CC(=O)N[C@@H](CC1CCCC2CCCCC21)C(=O)NCc1ccc(N)nc1)C(C)C (stereo partly drawn) [Example 394, (S)—N-(6-Amino-pyridin-3-ylmethyl)-3-(decahydro-naphthalen-1-yl)-2-(2-diisopropylamino-acetylamino)-propionamide]
0.17	CC(C)N(C)[C@@H](C)C(=O)N[C@@H](CC1CCCC2CCCCC21)C(=O)NCc1ccc(N)nc1 (stereo partly drawn) [Example 395, (S)—N-[(S)-1-[(6-Amino-pyridin-3-ylmethyl)-carbamoyl]-2-(decahydro-naphthalen-1-yl)-ethyl]-2-(isopropyl-methyl-amino)-propionamide]
1.4	CN1CCC[C@@H]1C(=O)N[C@@H](CC1CCCC2CCCCC21)C(=O)NCc1ccc(N)nc1 (stereo partly drawn) [Example 396, (R)-1-Methyl-pyrrolidine-2-carboxylic acid [(S)-1-[(6-amino-pyridin-3-ylmethyl)-carbamoyl]-2-(decahydro-naphthalen-1-yl)-ethyl]-amide]
44.2	CN(C)[C@H](Cc1ccccc1)C(=O)N[C@@H](CC1CCCC2CCCCC21)C(=O)NCc1ccc(N)nc1 (stereo partly drawn) [Example 397, (R)—N-[(S)-1-[(6-Amino-pyridin-3-ylmethyl)-carbamoyl]-2-(decahydro-naphthalen-1-yl)-ethyl]-2-dimethylamino-3-phenyl-propionamide]
0.74	CC(C)[C@H](C(=O)N[C@@H](Cc1ccc(Cl)c(Cl)c1)C(=O)NCc1ccc(N)nc1)N(C)C [Example 399, (R)—N-[(S)-1-[(6-Amino-pyridin-3-ylmethyl)-carbamoyl]-2-(3,4-dichloro-phenyl)-ethyl]-2-dimethylamino-3-methyl-butyramide]
0.16	CC(C)N(C)[C@@H](C)C(=O)N[C@@H](Cc1ccc(Cl)c(Cl)c1)C(=O)NCc1ccc(N)nc1 [Example 401, (S)—N-[(S)-1-[(6-Amino-pyridin-3-ylmethyl)-carbamoyl]-2-(3,4-dichloro-phenyl)-ethyl]-2-(isopropyl-methyl-amino)-propionamide]
13	C[C@H](C(=O)N[C@@H](Cc1ccc(Cl)c(Cl)c1)C(=O)NCc1ccc(N)nc1)N1CCCCC1 [Example 402, (R)—N-[(S)-1-[(6-Amino-pyridin-3-ylmethyl)-carbamoyl]-2-(3,4-dichloro-phenyl)-ethyl]-2-piperidin-1-yl-propionamide]
1.1	C[C@@H](C(=O)N[C@@H](Cc1ccc(Cl)c(Cl)c1)C(=O)NCc1ccc(N)nc1)N1CCCCC1 [Example 403, (S)—N-[(S)-1-[(6-Amino-pyridin-3-ylmethyl)-carbamoyl]-2-(3,4-dichloro-phenyl)-ethyl]-2-piperidin-1-yl-propionamide]
33.4	Nc1ccc(CNC(=O)[C@H](Cc2ccc(Cl)c(Cl)c2)NC(=O)CN2CCCCC2)cn1 [Example 404, (S)—N-(6-Amino-pyridin-3-ylmethyl)-3-(3,4-dichloro-phenyl)-2-(2-piperidin-1-yl-acetylamino)-propionamide]
7.1	CCC(C)[C@H](C(=O)N[C@@H](Cc1cccc(Cl)c1)C(=O)NCc1ccc(N)nc1)N(C)C (stereo partly drawn) [Example 405, (R)-2-Dimethylamino-3-methyl-pentanoic acid [(S)-1-[(6-amino-pyridin-3-ylmethyl)-carbamoyl]-2-(3-chloro-phenyl)-ethyl]-amide]
4.7	CC(C)[C@H](C(=O)N[C@@H](Cc1cccc(Cl)c1)C(=O)NCc1ccc(N)nc1)N(C)C [Example 406, (R)—N-[(S)-1-[(6-Amino-pyridin-3-ylmethyl)-carbamoyl]-2-(3-chloro-phenyl)-ethyl]-2-dimethylamino-3-methyl-butyramide]
17	CN(C)C(Cc1ccccc1)C(=O)NC(Cc1cccc(Cl)c1)C(=O)NCc1ccc(N)nc1 [Example 407, (R)—N-[(S)-1-[6-Amino-pyridin-3-ylmethyl)-carbamoyl]-2-(3-chloro-phenyl)-ethyl]-2-dimethylamino-3-phenyl-propionamide]
4.8	CCN(C)C(C)C(=O)NC(Cc1cccc(Cl)c1)C(=O)NCc1ccc(N)nc1 [Example 408, (S)—N-[(S)-1-[6-Amino-pyridin-3-ylmethyl)-carbamoyl]-2-(3-chloro-phenyl)-ethyl]-2-(ethyl-methyl-amino)-propionamide]
0.63	CC(C)N(C)C(C)C(=O)NC(Cc1cccc(Cl)c1)C(=O)NCc1ccc(N)nc1 [Example 409, (S)—N-[(S)-1-[6-Amino-pyridin-3-ylmethyl)-carbamoyl]-2-(3-chloro-phenyl)-ethyl]-2-(isopropyl-methyl-amino)-propionamide]
2.6	CCN(CC)[C@@H](C)C(=O)N[C@@H](Cc1cccc(Cl)c1)C(=O)NCc1ccc(N)nc1 [Example 410, (S)—N-[(S)-1-[(6-Amino-pyridin-3-ylmethyl)-carbamoyl]-2-(3-chloro-phenyl)-ethyl]-2-diethylamino-propionamide]

IC50 [nM]	SMILES
12.7	CC(C(=O)N[C@@H](Cc1cccc(Cl)c1)C(=O)NCc1ccc(N)nc1)N1CCCCC1 (stereo partly drawn) [Example 411, N-[(S)-1-[(6-Amino-pyridin-3-ylmethyl)-carbamoyl]-2-(3-chloro-phenyl)-ethyl]-2-piperidin-1-yl-propionamide]
9.3	Nc1ccc(CNC(=O)[C@H](Cc2cccc(Cl)c2)NC(=O)CN2CCCCC2)cn1 [Example 412, (S)—N-(6-Amino-pyridin-3-ylmethyl)-3-(3-chloro-phenyl)-2-(2-piperidin-1-yl-acetylamino)-propionamide]
7.9	CCN(C)[C@@H](C)C(=O)N[C@@H](Cc1cccc(C)c1)C(=O)NCc1ccc(N)nc1 [Example 413, (S)—N-{(S)-1-[(6-Amino-pyridin-3-ylmethyl)-carbamoyl]-2-m-tolyl-ethyl}-2-(ethyl-methyl-amino)-propionamide]
0.77	Cc1cccc(C[C@H](NC(=O)[C@H](C)N(C)C(C)C)C(=O)NCc2ccc(N)nc2)c1 [Example 414, (S)—N-{(S)-1-[(6-Amino-pyridin-3-ylmethyl)-carbamoyl]-2-m-tolyl-ethyl}-2-(isopropyl-methyl-amino)-propionamide]
5.3	CCN(CC)[C@@H](C)C(=O)N[C@@H](Cc1cccc(C)c1)C(=O)NCc1ccc(N)nc1 [Example 415, (S)—N-{(S)-1-[(6-Amino-pyridin-3-ylmethyl)-carbamoyl]-2-m-tolyl-ethyl}-2-diethylamino-propionamide]
6.2	CCN(C)[C@@H](C)C(=O)N[C@@H](Cc1cccc(C(F)(F)F)c1)C(=O)NCc1ccc(N)nc1 [Example 416, (S)—N-[(S)-1-[(6-Amino-pyridin-3-ylmethyl)-carbamoyl]-2-(3-trifluoromethyl-phenyl)-ethyl]-2-(ethyl-methyl-amino)-propionamide]
0.83	CC(C)N(C)[C@@H](C)C(=O)N[C@@H](Cc1cccc(C(F)(F)F)c1)C(=O)NCc1ccc(N)nc1 [Example 417, (S)—N-[(S)-1-[(6-Amino-pyridin-3-ylmethyl)-carbamoyl]-2-(3-trifluoromethyl-phenyl)-ethyl]-2-(isopropyl-methyl-amino)-propionamide]
2	CCN(CC)[C@@H](C)C(=O)N[C@@H](Cc1cccc(C(F)(F)F)c1)C(=O)NCc1ccc(N)nc1 [Example 418, (S)—N-[(S)-1-[(6-Amino-pyridin-3-ylmethyl)-carbamoyl]-2-(3-trifluoromethyl-phenyl)-ethyl]-2-diethylamino-propionamide]
16.3	CC(C(=O)N[C@@H](Cc1cccc(C(F)(F)F)c1)C(=O)NCc1ccc(N)nc1)N1CCCCC1 (stereo partly drawn) [Example 419, N-[(S)-1-[(6-Amino-pyridin-3-ylmethyl)-carbamoyl]-2-(3-trifluoromethyl-phenyl)-ethyl]-2-piperidin-1-yl-propionamide]
117	Nc1ccc(CNC(=O)[C@H](Cc2cccc(C(F)(F)F)c2)NC(=O)CN2CCCCC2)cn1 [Example 420, (S)—N-(6-Amino-pyridin-3-ylmethyl)-2-(2-piperidin-1-yl-acetylamino)-3-(3-trifluoromethyl-phenyl)-propionamide]
67.4	C[C@H](C(=O)N[C@@H](Cc1ccc(C(F)(F)F)cc1)C(=O)NCc1ccc(N)nc1)N1CCCCC1 [Example 421, (R)—N-[(S)-1-[(6-Amino-pyridin-3-ylmethyl)-carbamoyl]-2-(4-trifluoromethyl-phenyl)-ethyl]-2-piperidin-1-yl-propionamide]
3	C[C@@H](C(=O)N[C@@H](Cc1ccc(C(F)(F)F)cc1)C(=O)NCc1ccc(N)nc1)N1CCCCC1 [Example 422, (S)—N-[(S)-1-[(6-Amino-pyridin-3-ylmethyl)-carbamoyl]-2-(4-trifluoromethyl-phenyl)-ethyl]-2-piperidin-1-yl-propionamide]
129	Nc1ccc(CNC(=O)[C@H](Cc2ccc(C(F)(F)F)cc2)NC(=O)CN2CCCCC2)cn1 [Example 423, (S)—N-(6-Amino-pyridin-3-ylmethyl)-2-(2-piperidin-1-yl-acetylamino)-3-(4-trifluoromethyl-phenyl)-propionamide]
28	CCC(C)[C@H](C(=O)N[C@@H](Cc1cc(F)cc(F)c1)C(=O)NCc1ccc(N)nc1)N(C)C (stereo partly drawn) [Example 424, (R)-2-Dimethylamino-3-methyl-pentanoic acid [(S)-1-[(6-amino-pyridin-3-ylmethyl)-carbamoyl]-2-(3,5-difluoro-phenyl)-ethyl]-amide]
14.9	CC(C(=O)N[C@@H](Cc1cc(F)cc(F)c1)C(=O)NCc1ccc(N)nc1)N1CCCCC1 (stereo partly drawn) [Example 425, N-[(S)-1-[(6-Amino-pyridin-3-ylmethyl)-carbamoyl]-2-(3,5-difluoro-phenyl)-ethyl]-2-piperidin-1-yl-propionamide]
2.7	CC1CCCC(C)N1CC(=O)N[C@@H](Cc1ccc(Cl)cc1)C(=O)NCc1ccc(N)nc1 (stereo partly drawn) [Example 426, (S)—N-(6-Amino-pyridin-3-ylmethyl)-3-(4-chloro-phenyl)-2-[2-(2,6-dimethyl-piperidin-1-yl)-acetylamino]-propionamide]

— US20100076015A1, “Aminopyridine Derivatives” (VANTIA LIMITED, priority 2008, published 2010)
